Reference: patent US8173618B2, “Formulations for reducing neuronal degeneration” (University of Massachusetts, priority 2003, dated 2012)

What was measured:
[1] = test system: differentiated SH-SY-5Y cells; test: Externalized phosphatidylserine (meracyanine fluorescence) as index of apoptosis in SH-SY-5Y cells; format: cell-based, human
Description: Levels of externalized phosphatidylserine (PS) were used as a measure of apoptosis (Rimon et al., 1997, J. Neurosci. Res., 48:563-570). Briefly, cultures were subjected to treatments then rinsed with PBS and incubated with 10 μl/ml merocyanine (Upstate Biotech, Lake Placid, N.Y.), followed by examination under rhodamine optics (Ekinci et al, 1999, J. Biol. Chem., 274:30322-30327).
The question of whether folate deficiency is associated with apoptosis was investigated. […] Overall detachment, a further sign of cell death, was evident by the seventh day in the serum-deprived cultures. The detachment phenomenon precluded longer experiments.
The effect of ALCAR on differentiated SH-SY-5Y cells treated with Abeta was examined. Cells were cultured in 20 μM Abeta in the presence and absence of ALCAR. Some cultures were pretreated with 50 μM ALCAR for 30 minutes. In these experiments, the ALCAR-containing medium was replaced with medium containing Abeta and no ALCAR then incubated for two hours before being assayed. Cultures were assayed for ROS, apoptosis, and ATP.

[2] = test system: SH-SY-5Y human neuroblastoma cells; test: PHF-1 immunoreactivity (phospho-tau) in differentiated SH-SY-5Y cells with or without folate; format: cell-based
Description: Cultured cells were used to test individual agents and formulations. […] For immunocytochemistry to detect paired helical filament-1 (PHF-1) staining (as an index of tau phosphorylation), cells were fixed for 15 minutes with 4% paraformaldehyde in 0.1 M phosphate buffer and immunostained by sequential reaction with a mouse monoclonal PHF-1 antibody that was raised against tau from paired helical filaments isolated from the brains of Alzheimer disease patients. Incubation with PHF-1 antibody was followed by rhodamine conjugated goat anti-mouse IgG and visualization using methods known in the art. […] Cortical neurons were prepared from 12 day embryonic C57/B16 day old mice using known methods. Both the SH-SY-5Y cultures and the cortical neurons were processed for PHF-1 (paired helical filament 1) immunofluorescence using known methods ([…] et al., 1999 supra). Control cells cultured in the continued presence of normal folate levels were also processed. Phospho-tau was also examined using immunoblot analysis. […] The homogenates were sedimented at 13,000×g for 15 minutes and the resulting supernatant was electrophoresed, blotted, and the blot stained for PHF-1 using known methods.

[3] = test system: SH-SY-5Y cells; test: HPLC of homocysteine in SH-SY-5Y cell lysates and medium; format: cell-based, human
Description: Glutathione levels were quantified in homogenates of SH-SY-5Y cells. Cultures were rinsed twice with Tris-buffered saline (TBS), scraped from the plate in a small volume of TBS and homogenized on ice. Medium was also utilized for analysis of HCY along with cellular lysates, since HCY is normally exported from cells. Homogenates (100 μl) were reduced by mixing with 50 μl of 100 μM N-acetylcysteine or with 30 μl of 30 μM cystamine (as an internal standard) and 10 μl of tri-carboxyethylphosphine (100 mg/ml in 0.05 M HCl). Samples were vortexed, incubated at room temperature for 30 minutes, then centrifuged at 10,000×g for 10 minutes. 80 μl of the resulting supernatant were combined with 160 μl of 2 M boric acid/4 mM EDTA (pH 10.5), followed by 80 μl of 1.0 mg/ml SBDF [7-fluorobenzo-2-oxa-1,3-diazole-4-sulfonate] in boric acid/EDTA buffer). Samples were mixed, incubated for 60 minutes at 60° C., equilibrated to reach temperature, and 50 μl of the sample was then injected into a Hewlett Packard model 1090 HPLC, which is used with a 1046A fluorescence detector and a Hewlett Packard 4.6×60 mm high-speed analytical column packed with 3 μM ODs (C18) Hypersil silica. The mobile phase consisted of methanol/0.2 M acetate buffer pH 4.0 (2/98 by volume). Glutathione concentrations were then determined by comparison of peak area ratios of glutathione to the internal standard N-acetylcysteine in the sample compared to peak areas obtained for a glutathione standard curve. Samples were derived from 3-4 normal and 3-4 ApoE−/− mice for each dietary condition, from ≧2 independent experiments (total n≧6 for each diet for both experiments).
Medium was then decanted, cells were scraped from the plate and homogenized, and medium and cellular lysates, along with an aliquot of fresh medium that had not been in contact with cells, were subjected to HPLC analyses.

[4] = test system: cortical neurons; test: Intracellular ROS by DCFD fluorescence in cortical neurons; format: cell-based, mice; details: folate deprivation for two hours
Description: Intracellular reactive oxygen species (ROS) were monitored as described in […] et al., 1999 (J. Biol. Chem., 274:30322-30327). Briefly, cells were incubated for 30 minutes with dichloro-fluorescein diacetate (DCFD; acetoxymethyl ester; Molecular Probes, Inc., Eugene, Oreg.), which is used to detect intracellular peroxide levels. Incubation was followed by rinsing of cultures in serum-free medium and immediate capture of images using UV optics. Images were captured under epifluorescent and phase-contrast illumination using a DAGE CCL-72 cooled CCD camera via a Scion LG-3 frame grabber operated by NIH Image (see the Internet at rsb.info.nih.gov/nih-image). Images were then stored as PICT files on a Macintosh Power PC 7100AV for subsequent analysis. At least 100 cells in randomly-selected fields from duplicate cultures derived from multiple experiments were scored for fluorescent intensity using NIH Image analysis software. Representative background areas devoid of cells were similarly analyzed and subtracted from cell values to yield net densitometric values. All fields for each individual assay were illuminated, captured, and processed under identical settings. Corresponding phase-contrast images were obtained. Cell aggregates were excluded from the assays; only individual cells were quantified. Values were exported to Excel for statistical analyses using Student's t test. […]

SMILES: Nc1nc2ncc(CNc3ccc(C(=O)N[C@@H](CCC(=O)O)C(=O)O)cc3)nc2c(=O)[nH]1 [folate, folic acid]
- meracyanine fluorescence (externalized PS) Mean ± SEM ([1]; +folate, Day 1, without serum): 34.0 ± 1.2 arbitrary fluorescent units
- meracyanine fluorescence (externalized PS) Mean ± SEM ([1]; +folate, Day 3, without serum): 40.9 ± 2.0 arbitrary fluorescent units
- meracyanine fluorescence (externalized PS) Mean ± SEM ([1]; +folate, Day 5, without serum): 63.7 ± 3.6 arbitrary fluorescent units
- meracyanine fluorescence (externalized PS) Mean ± SEM ([1]; −folate, Day 1, without serum): 31.2 ± 1.4 arbitrary fluorescent units
- meracyanine fluorescence (externalized PS) Mean ± SEM ([1]; −folate, Day 3, without serum): 44.1 ± 4.1 arbitrary fluorescent units
- meracyanine fluorescence (externalized PS) Mean ± SEM ([1]; −folate, Day 5, without serum): 112.7 ± 5.7 arbitrary fluorescent units
- PHF-1 (phospho-tau) Mean ± SEM ([2]; +Folate 4 hr): 40.3 ± 3.9
- % increase in phospho-tau compared to control ([2]; +Folate 24 hr): −5.5%
- PHF-1 (phospho-tau) Mean ± SEM ([2]; +Folate 24 hr): 38.1 ± 3.1
- PHF-1 levels after cultures received medium containing folate ([2]; after folate deprivation for 24 hours): returned to control levels within four hours
- average increase in PHF-1 immunofluorescence ([2]; folate deficiency, two hours): 3.5 fold
- average increase in phospho-tau ([2]; folate deprivation for 24 hours): 29%
- accumulation of phospho-tau after restoration of folate ([2]; following folate deprivation): reversed within two hours
- total tau levels (monoclonal antibody 5E2) ([2]; two hour deprivation of folate): not altered
- % increase in phospho-tau compared to control ([2]; −Folate 4 hr): 29%
- PHF-1 (phospho-tau) Mean ± SEM ([2]; −Folate 4 hr): 52.0 ± 3.4
- % increase in phospho-tau compared to control ([2]; −Folate 24 hr): −1.5%
- PHF-1 (phospho-tau) Mean ± SEM ([2]; −Folate 24 hr): 39.7 ± 2.6
- homocysteine levels within cell lysates ([3]; both before and after folate deprivation): < 1 nM
- homocysteine levels in medium ([3]; cells cultured two hours in the absence of folate): approximately 300 nM
- homocysteine levels in medium ([3]; cells cultured two hours in the presence of folate): about 30 nM
- ROS [4]: increased reactive oxygen species (ROS)
